Test results taken from patent publication US20050075271A1, “Crystalline beta2 adrenergic receptor agonist” (priority 2002, published 2005).

Assays:
Type in all cases: physicochemical
[1] = Second stability test of aqueous nebulizer formulation, HPLC, 4-9 months storage; conditions: normalized to −20° C. sample
Description: (§1) An aqueous aerosol formulation for nebulizer administration having 0.1 mg of the active compound, compound 1, per gram of solution was prepared by the following procedure. Citric acid (755.8 mg) was added to a vessel charged with 0.9% sodium chloride solution (325.7 g). The active ingredient (42.3 mg) was added to the sodium chloride solution and the resulting mixture was stirred for 5 min and sonicated for 7 min to dissolve the active ingredient. The intial pH of the solution was determined to be 2.54. 1 N NaOH (7.1 g) was slowly added to the solution to obtain a final pH of 5.00. An additional amount of 0.9% sodium chloride solution (26.7 g) was added and the resulting solution was stirred to provide the aqueous formulation (360.3 g).
In a second stability test, aliquots were prepared and stored as above. Samples were removed for analysis by HPLC at various intervals. HPLC analysis was conducted using a MAC MOD Ace-5, C18, 25 cm×4.6 mm, 5 μm column, equilibrated at 30° C. The mobile phases were as described above. Detection was by UV absorbance at 244 nm. The initial condition was 6% phase B. A flow rate of 1.0 mL/min and a gradient of 6 to 30% B over 25 min, 30% to 60% B in 10 min and 60% to 100% B in 2 min were utilized. The retention time of compound 1 was approximately 20 min. The percent of active compound 1 remaining after the indicated period, normalized to the sample stored at −20° C. is given in Table 2 below.

[2] = as above; conditions: nine months at 5° C.
[3] = Stability testing of aqueous nebulizer formulation (Formulation Example 1), HPLC, 1-4 months storage; conditions: for Percent of active compound remaining: aqueous formulation 0.1 mg/g, pH 5.00
Description: as §1
Aliquots of the formulation prepared as in Example 1 were stored at −20° C., 5° C., room temperature, and 40° C. Samples were removed for analysis by HPLC at 1 month intervals. HPLC analysis was conducted using a Zorbax RP-bonus, C14, 25 cm×4.6 mm column, equilibrated at 35° C. The mobile phases used were: A: 0.1% TFA in 98:2 water:acetonitrile; and B: 0.1% TFA in 10:90 water:acetonitrile. Detection was by UV absorbance at 215 nm. A flow rate of 1.0 mL/min and a gradient of 0 to 60% B over 20 minutes was utilized. The percent of active compound 1 remaining after the indicated period, normalized to the sample stored at −20° C. is given in Table 1 below.

[4] = Solid state stability testing of crystalline diHCl salt, ground and unground, 30 days (DSC, TGA, XRPD, HPLC); conditions: for crystal stability by DSC after exposure to elevated temperature and humidity: 40° C. and 75% relative humidity vs room temperature desiccator, ground and unground samples, dihydrochloride
Description: A single lot of the crystalline diHCl salt of compound 1]prepared as in Example 6, was used to prepare four samples of approximately 30 mg each. Two samples were ground to fine particles with a mortar and pestle. Two samples, one ground and one that had not been processed, were stored in a closed chamber at 40° C. and 75% relative humidity for 30 days and two samples, one ground and one that had not been processed, were stored at room temperature in a desiccators for the same period. Samples were withdrawn for analysis by DSC and TGA at 11 days and by XRPD and HPLC at 30 days.
X-ray powder diffraction patterns were obtained with a Shimadzu 6000 diffractometer using Cu Kα (40.0 kV, 35.0 mA) radiation. The analysis was performed with the goniometer running in continuous-scan mode of 2°/min with a step size of 0.02° over a range of 4 to 45°. Samples were prepared on glass specimen holders as a thin layer of powdered material.
Differential scanning calorimetry traces were obtained with a TA instruments model DSC2010. Samples were placed in sealed aluminum pans for analysis with an empty pan serving as the reference. Samples were equilibrated at 30° C. and heated at 5° C. per minute to a temperature of 300° C. The instrument was calibrated with an indium standard.
(§2) Thermogravimetric analysis was conducted using a TA instruments model Q50. Samples were weighed in aluminum pans and heated from 50° C. to 300° C. at a rate of 10° C./min. Water content was estimated by measuring the total weight loss between 50° and 120° C. (a range in which no significant decomposition was observed).
(§3) Unless otherwise indicated, HPLC analysis was conducted using a Zorbax RP-bonus, C14, 25 cm×4.6 mm column, equilibrated at 35° C. The mobile phases used were: A: 0.1% TFA in 98:2 water:acetonitrile; and B: 0.1% TFA in 10:90 water:acetonitrile. Detection was by UV absorbance at 215 nm. A flow rate of 1.0 mL/min and a gradient of 0 to 60% B over 20 minutes was utilized. The diHCl salt of compound 1 gave a retention time of 11.7 min.

[5] = Solid state stability of recrystallized diHCl salt, 6 months at 40° C. and 75% relative humidity
Description: In another test, samples of the recrystallized diHCl salt of Example 7a were stored at 40° C. and 75% relative humidity.
as §2, §3
Chiral purity was determined using a Beckman P/ACE MDQ capillary electrophoresis system. The analysis was performed at pH 2.5 using heptakis-(2,3,-diacetyl-6-sulfato)-β-cyclodextrin (HDAS-β-CD) as the chiral selector and using a 50 μm×31.2 cm fused silica capillary. Detection was by UV absorbance at 200 nm. The four stereoisomers migrate in the following order: SS, RS, SR, RR, where compound 1 is designated as RR.

[6] = 40° C. and 75% relative humidity, 30 days, ground and unground
[7] = 6 months at 40° C. and 75% relative humidity

O=CNc1cc([C@@H](O)CNCCc2ccc(NC[C@H](O)c3ccccc3)cc2)ccc1O [compound 1, N-{2-[4-((R)-2-hydroxy-2-phenylethylamino)phenyl]ethyl}-(R)-2-hydroxy-2-(3-formamido-4-hydroxyphenyl)ethylamine]
Percent of active compound remaining ([1]; 5° C., 4 months): 99% | Percent of active compound remaining ([1]; 5° C., 5 months): 99% | Percent of active compound remaining ([1]; 5° C., 6 months): 100% | Percent of active compound remaining ([1]; 5° C., 9 months): 99% | Percent of active compound remaining ([1]; 40° C., 4 months): 74% | Percent of active compound remaining ([1]; 40° C., 5 months): 69% | Percent of active compound remaining ([1]; 40° C., 6 months): 63% | Percent of active compound remaining ([1]; room temperature, 4 months): 97% | Percent of active compound remaining ([1]; room temperature, 5 months): 95% | Percent of active compound remaining ([1]; room temperature, 6 months): 94% | Percent of active compound remaining ([1]; room temperature, 9 months): 90% | free base composition of nebulizer solution upon storage [2]: essentially unchanged | Percent of active compound remaining ([3]; 5° C., 1 month, normalized to sample stored at −20° C.): 101% | Percent of active compound remaining ([3]; 5° C., 2 months, normalized to −20° C. sample): 100% | Percent of active compound remaining ([3]; 5° C., 3 months, normalized to −20° C. sample): 100% | Percent of active compound remaining ([3]; 5° C., 4 months, normalized to −20° C. sample): 99% | Percent of active compound remaining ([3]; 40° C., 1 month, normalized to −20° C. sample): 94% | Percent of active compound remaining ([3]; 40° C., 2 months, normalized to −20° C. sample): 87% | Percent of active compound remaining ([3]; 40° C., 3 months, normalized to −20° C. sample): 72% | Percent of active compound remaining ([3]; 40° C., 4 months, normalized to −20° C. sample): 74% | chemical degradation of nebulizer solution upon storage (HPLC) ([3]; nebulizer solution 0.1 mg compound 1 per gram, four months at room temperature): no unacceptable chemical degradation | Percent of active compound remaining ([3]; room temperature, 1 month, normalized to −20° C. sample): 99% | Percent of active compound remaining ([3]; room temperature, 2 months, normalized to −20° C. sample): 99% | Percent of active compound remaining ([3]; room temperature, 3 months, normalized to −20° C. sample): 97% | Percent of active compound remaining ([3]; room temperature, 4 months, normalized to −20° C. sample): 96%

Cl.Cl.O=CNc1cc([C@@H](O)CNCCc2ccc(NC[C@H](O)c3ccccc3)cc2)ccc1O [crystalline diHCl salt of compound 1, N-{2-[4-((R)-2-hydroxy-2-phenylethylamino)phenyl]ethyl}-(R)-2-hydroxy-2-(3-formamido-4-hydroxyphenyl)ethylamine dihydrochloride]
crystal stability by DSC after exposure to elevated temperature and humidity [4]: no detectable effect on crystal stability | crystal stability by DSC after exposure to elevated temperature and humidity ([4]; listed as crystalline diHCl salt): no detectable difference | XRPD pattern after exposure to heat and humidity [4, 6]: not appreciably affected | chemical degradation by HPLC [4, 6]: no appreciable chemical degradation | water associated with crystals by TGA after exposure to high relative humidity ([4]; 40° C. and 75% relative humidity, ground and unground crystals, 11 days): no appreciable quantity of water becomes associated | thermal stability ([4]; elevated temperatures): thermally stable | hygroscopicity ([4]; exposed to the atmosphere for prolonged periods at high relative humidity): neither hygroscopic nor deliquescent | decomposition on grinding into micronized particles ([4]; ground into micronized particles): without significant decomposition | water content ([5]; 6 mo at 40° C. and 75% relative humidity): 0.37% | appearance of the material after storage [5, 7]: no visible contamination | chemical purity by HPLC analysis after storage [5, 7]: essentially unchanged | chiral purity after storage [5, 7]: no change | water content ([5]; initially): 0.12%
